From publication PMC12502564, “Evaluation of LLM-generated peptide as foundation template for discovery of effective encrypted AMPs against clinical superbugs” (Microbiology Spectrum, 2025)
No end group written: not given here.

Legend:
MRSA 2210187 = type: cell-based, methicillin-resistant Staphylococcus aureus; settings: 2210187
Protocol: (§1) The MIC of all peptides was determined using the microdilution broth method in a 96-well plate. Peptides were dissolved in the DMSO with an initial concentration of 12,800 µg mL^−1. And cells of eight strains were separately suspended in the MHB at a density of approximately 10^5 CFU mL^−1. In the first column of the 96-well plate, 16 µL of peptide and 184 µL of MHB were added to each well to achieve a final concentration of 1,024 µg mL^−1. One-hundred microliters of MHB was added to each of the remaining wells. Then the first column of liquid was mixed well and diluted to the 12th column using the twofold dilution method. One-hundred microliters of prepared bacterial solution was added to all wells, and the 96-well plate was incubated at 37°C for 18–24 h. The MIC was defined as the concentration of the peptide in the well just preceding the first well showing visible turbidity. All experiments were performed in triplicate to ensure reliability.

CRAB 2210186 [1] = type: cell-based, carbapenem-resistant Acinetobacter baumannii
Protocol: as §1

CRAB [2] = experiment: Time-kill curve; type: cell-based, carbapenem-resistant Acinetobacter baumannii; settings: ~10^5 CFU mL^−1 in MH broth
Protocol: (§2) Bacteria in the logarithmic growth phase were diluted to approximately 10^5 CFU mL^−1 in MH broth and treated with peptides, polymyxin B, or vancomycin at final concentrations of 1/2 × MIC, 1 × MIC, 2 × MIC, and 4 × MIC. After the addition of the test compound, samples were taken at 0, 3, 6, 9, 12, and 24 h and serially diluted. Subsequently, 5 µL of the diluted samples were spread on agar plates and incubated at 37°C for 20 h. The bacterial concentration CFU mL^−1 at the corresponding time point of each sample was calculated based on the number of colonies on the agar plate, and the log10 (CFU mL^−1) was plotted against time (h).

MRSA = experiment: Time-kill curve; type: cell-based, methicillin-resistant Staphylococcus aureus; settings: ~10^5 CFU mL^−1 in MH broth
Protocol: as §2

CRAB [3] = experiment: PI assay, cytoplasmic membrane integrity; type: cell-based, carbapenem-resistant Acinetobacter baumannii; settings: 1 × MIC, 10^8 CFU mL^−1
Protocol: PI (which is known to stain nuclear chromatin upon cell membrane disruption) assay was carried out to evaluate the ability of AMPs to disrupt the cytoplasmic membrane integrity ([63]). After CRAB was grown to the exponential phase, bacteria cells were harvested and washed three times in washing buffer of 5 mM glucose and 5 mM HEPES (1:1, pH = 7.2) and then re-adjusted to 10^8 CFU mL^−1 in the same buffer. Bacterial suspensions (150 µL/well) were loaded into black-walled, clear-bottom 96-well plates with lids. Following bacterial loading, 50 µL of 10 µM PI was introduced into each well, with 30 min pre-incubation CRAB. Post-incubation fluorescence signals were acquired using 535 nm excitation and 617 nm emission wavelengths. Compounds (10 µL) were then administered to achieve 1 × MIC/10 × MIC-equivalent final concentrations in the dye-loaded bacterial suspensions. Real-time fluorescence monitoring was performed with continuous acquisition during the first 10 min, followed by measurements at 10-min intervals. Negative controls received 10 µL sterile water in lieu of antimicrobial peptides while maintaining equivalent pre-incubation conditions. All experimental conditions were executed with three biological replicates.

CRAB [4] = experiment: Biofilm formation inhibition assay (crystal violet); type: cell-based, carbapenem-resistant Acinetobacter baumannii; settings: 1/2 × MIC, 24 h, OD570
Protocol: The crystal violet staining method ([66]) was used to determine the inhibitory activity of the compounds against the biofilm formation of CRAB. The steps were as follows: prepare a bacterial solution (10^6 CFU mL^−1), mix it with different final concentrations of the compound (1/2 × MIC, 1 × MIC, 2 × MIC, and 4 × MIC), and culture it for 24 h. After discarding the supernatant, wash with PBS, add anhydrous methanol to fix the biofilm, and then stain it with crystal violet for 60 min after drying. After washing, dissolve the biofilm with 33% glacial acetic acid, and measure OD570. Three parallel experiments were performed, and the biofilm formation inhibition rate was calculated by the following formula:
(3) Biofilm formation inhibition rate (%)=(1−OD(sample)− OD(blank)/OD(negative)− OD(blank))×100%

CRAB [5] = experiment: Drug resistance assay, 20 passages; type: cell-based, carbapenem-resistant Acinetobacter baumannii; settings: 20 passages at 0.5-fold MIC, n = 3
Protocol: Resistance development assays were performed following previous report ([43]). CRAB was cultured overnight at 37°C at 160 rpm in LB. In wells of a 96-well polypropylene flat-bottom plate, 5 µL of the overnight bacterial culture (10^7 CFU mL^−1) was added to 100 µL of peptides/antibiotic solutions (with final concentrations of 0.25 to 512 µg mL^−1) in MHB. Plates were incubated for 18 to 20 h at 37°C. The MIC, the lowest concentration of peptides/antibiotic that caused lack of visible bacterial growth, was determined for each bacterial species. Thereafter, 5 µL of the growth at the 0.5-fold MIC suspension (10^7 CFU mL^−1) was added to a fresh medium containing peptides/antibiotic, and these mixtures were incubated as described above. This was repeated for 20 passages. All experiments were performed in triplicate to ensure reliability.

E. coli ATCC25922 = type: cell-based, Escherichia coli
Protocol: as §1

CRAB 2210186 [6] = settings: 10% fetal bovine serum, room temperature, 1–6 h, then MIC assay, triplicate
Protocol: For serum sensitivity experiments, the peptide to be tested was incubated in 10% fetal bovine serum at room temperature for 1–6 h. After deactivation, the MICs of peptides against CRAB 2210186 and MRSA 2210187 were measured using the MIC assay. All experiments were performed in triplicate to ensure reliability.

A. baumannii ATCC19606 = type: cell-based, Acinetobacter baumannii
Protocol: as §1

CRPA 2403282 = type: cell-based, carbapenem-resistant P. aeruginosa
Protocol: as §1

## WLKRILKWIGNKLKW [PL-15]
MRSA 2210187
  MIC: 2 µg/mL
CRAB 2210186 [1]
  MIC: 4 µg/mL
CRAB [2]; 1/2 × MIC
  time to kill CRAB: ≤ 6 h
CRAB [2]; 1 × MIC
  time to kill CRAB: ≤ 6 h
CRAB [2]; 2 × MIC
  time to complete bacterial eradication of CRAB: ≤ 3 h
CRAB [2]; 4 × MIC
  time to kill CRAB: ≤ 3 h
MRSA; 1/2 × MIC
  time to eliminate MRSA: ≤ 6 h
MRSA; 1 × MIC
  time to complete bacterial eradication of MRSA: ≤ 6 h
MRSA; 2 × MIC
  time to full bacterial killing of MRSA: ≤ 3 h
MRSA; 4 × MIC
  time to full bacterial killing of MRSA: ≤ 3 h
CRAB [3]
  PI fluorescence (cytoplasmic membrane integrity): stronger fluorescence signal compared to polymyxin B and control
CRAB [4]
  biofilm formation inhibition: moderate biofilm inhibition
CRAB [5]
  MIC change after serial passaging: within a twofold range
E. coli ATCC25922
  MIC: lower than 11 µg mL^−1
CRAB 2210186 [6]
  fold change in MIC after incubation in serum: maximum twofold increase
A. baumannii ATCC19606
  MIC: lower than 11 µg mL^−1
CRPA 2403282
  MIC: 64 µg/mL
